In patent publication US20130011427A1 (priority 2009, published 2013):

Experiments:
[1] = test system: HLA-DR4/huCD4 (DRB1*0401) Tg mice, CD8-depleted splenocytes; type: cell-based, mouse
[2] = test system: HLA-A2.1 (HLA-A*0201) Tg mice, CD4-depleted splenocytes; type: cell-based, mouse
[3] = test system: HLA-DR3 (DRB1*0301) Tg mice, CD8-depleted splenocytes; type: cell-based, mouse
[4] = test system: HLA-DR2 (DRB1*1501) Tg mice, CD8-depleted splenocytes; type: cell-based, mouse
[5] = target: HLA-DR4 (HLA-DRA*0101 / HLA-DRB1*0401) (human); test: cell-based or functional assay

| Substance | T cell activation of HLA transgenic mice (SFC/10^6) IFN-γ ELISpot, DR4 [1] [SFC/10^6] | T cell activation of HLA transgenic mice (SFC/10^6) IFN-γ ELISpot, DR3 [3] [SFC/10^6] | further results |
| --- | --- | --- | --- |
| AEVRSYCYLATVSDLSTK [E 54-71] | 205 ± 56 | – | – |
| AHWTEARIMLDNINM [NS3 487-501] | – | 431 ± 112 | T cell activation of HLA transgenic mice (SFC/10^6) IFN-γ ELISpot, A2 [2]: 308 ± 188 SFC/10^6 |
| ALLTPGLRCLNLDVYRIL [NS2a 160-177] | – | 59 ± 3 | T cell activation of HLA transgenic mice (SFC/10^6) IFN-γ ELISpot, A2 [2]: 63 ± 18 SFC/10^6 |
| ARIMLDNINMPNGLIAQF [NS3 492-509] | – | 216 ± 42 | – |
| CLNLDVYRILLLMVGI [NS2a 168-183] | – | 231 ± 16 | T cell activation of HLA transgenic mice (SFC/10^6) IFN-γ ELISpot, DR2 [4]: 556 ± 33 SFC/10^6 |
| CYGGHTNEDDSNFAHW [NS3 474-489] | – | 83 ± 23 | T cell activation of HLA transgenic mice (SFC/10^6) IFN-γ ELISpot, A2 [2]: 92 ± 18 SFC/10^6 |
| DRRWCFDGPRTNTIL [NS3 560-574] | – | 225 ± 10 | – |
| DTGCAIDISRQELRCGSGV [NS1 1-19] | – | 572 ± 20 | – |
| DTPSPKEYKKGDTTTGVY [NS3 6-23] | 43 ± 6 | – | – |
| DYINTSLTSINVQASALF [NS4b 63-80] | 92 ± 13 | 386 ± 60 | – |
| EGRVEIDFDYCPGTTVTL [NS1 270-287] | 54 ± 6 | – | – |
| EKLQLKGTTYGVCSKAFK [E 293-310] | 47 ± 5 | – | – |
| EQQINHHWHKSGSSIGKA [E 390-407] | – | 50 ± 6 | – |
| EVITKLGERKILRPRWI [NS3 581-597] | 52 ± 11 | – | – |
| FAESNSGGDVVHLALMA [NS2a 65-81] | 60 ± 13 | – | – |
| FDGPRTNTILEDNNEVEV [NS3 565-582] | – | 59 ± 3 | – |
| FRSLFGGMSWITQGLLGA [E 450-467] | – | 104 ± 21 | T cell activation of HLA transgenic mice (SFC/10^6) IFN-γ ELISpot, DR2 [4]: 261 ± 13 SFC/10^6; T cell activation of HLA transgenic mice (SFC/10^6) IFN-γ ELISpot, A2 [2]: 205 ± 145 SFC/10^6 |
| GAGVMVEGVFHTLWHTTK [NS3 37-54] | – | 368 ± 66 | T cell activation of HLA transgenic mice (SFC/10^6) IFN-γ ELISpot, DR2 [4]: 149 ± 13 SFC/10^6 |
| GCWGQVTLTVTVTAATLL [NS4b 101-118] | 134 ± 8 | – | – |
| GKLITDWCCRSCTLPPLR [NS1 305-322] | 109 ± 22 | 557 ± 25 | – |
| GQVVTYALNTFTNLAVQL [NS5 605-622] | 240 ± 76 | – | T cell activation of HLA transgenic mice (SFC/10^6) IFN-γ ELISpot, DR2 [4]: 556 ± 27 SFC/10^6 |
| GRTILKENIKYEVAIFVH [E 127-144] | – | 198 ± 21 | T cell activation of HLA transgenic mice (SFC/10^6) IFN-γ ELISpot, DR2 [4]: 120 ± 1 SFC/10^6 |
| GVFIHNDVEAWMDRYKYY [NS1 18-35] | – | 52 ± 8 | – |
| GWPATEVMTAVGLMFAIV [NS2b 1-18] | 104 ± 18 | – | – |
| GWYDWQQVPFCSNHFTEL [NS5 704-721] | 65 ± 27 | – | – |
| HFMGKTWEALDTMYVVA [NS4a 15-31] | 187 ± 20 | – | T cell activation of HLA transgenic mice (SFC/10^6) IFN-γ ELISpot, DR2 [4]: 278 ± 26 SFC/10^6 |

| Substance | T cell activation of HLA transgenic mice (SFC/10^6) IFN-γ ELISpot, DR4 [1] [SFC/10^6] | T cell activation of HLA transgenic mice (SFC/10^6) IFN-γ ELISpot, DR3 [3] [SFC/10^6] | further results |
| --- | --- | --- | --- |
| HKSGSSIGKAFTTTLKGA [E 398-415] | – | 88 ± 1 | T cell activation of HLA transgenic mice (SFC/10^6) IFN-γ ELISpot, DR2 [4]: 168 ± 18 SFC/10^6 |
| IKYEVAIFVHGPTTVESH [E 135-152] | – | 86 ± 13 | – |
| IVVGRGEQQINHHWHK [E 384-399] | – | 87 ± 16 | – |
| KVLIELEPPFGDSYIVV [E 370-386] | 148 ± 10 | – | – |
| LATVSDLSTKAACPTM [E 62-77] | 47 ± 4 | – | T cell activation of HLA transgenic mice (SFC/10^6) IFN-γ ELISpot, A2 [2]: 465 ± 343 SFC/10^6 |
| LAVGGVLLFLSVNVHA [E 486-501] | – | 244 ± 16 | T cell activation of HLA transgenic mice (SFC/10^6) IFN-γ ELISpot, DR2 [4]: 214 ± 27 SFC/10^6; T cell activation of HLA transgenic mice (SFC/10^6) IFN-γ ELISpot, A2 [2]: 323 ± 173 SFC/10^6 |
| LGALLLWMGINARDRSIA [E 465-482] | – | 330 ± 91 | T cell activation of HLA transgenic mice (SFC/10^6) IFN-γ ELISpot, DR2 [4]: 490 ± 64 SFC/10^6; T cell activation of HLA transgenic mice (SFC/10^6) IFN-γ ELISpot, A2 [2]: 310 ± 186 SFC/10^6 |
| LITAAAVTLWENGASSVW [NS4b 201-218] | 73 ± 8 | 99 ± 26 | – |
| LVAAVIGWMLGSNTMQRV [prM 136-153] | 327 ± 162 | 78 ± 35 | T cell activation of HLA transgenic mice (SFC/10^6) IFN-γ ELISpot, DR2 [4]: 235 ± 9 SFC/10^6 |
| LVKTESWILRNPGYALVA [prM 121-138] | 56 ± 6 | – | T cell activation of HLA transgenic mice (SFC/10^6) IFN-γ ELISpot, DR2 [4]: 130 ± 23 SFC/10^6 |
| LVQSYGWNIVTMKSGVDV [NS5 115-132] | – | 79 ± 23 | – |
| NEDDSNFAHWTEARIML [NS3 480-496] | – | 121 ± 1 | – |
| NMPNGLIAQFYQPEREKV [NS3 500-517] | – | 145 ± 49 | T cell activation of HLA transgenic mice (SFC/10^6) IFN-γ ELISpot, DR2 [4]: 51 ± 10 SFC/10^6 |
| NTFTNLAVQLVRMMEGEGV [NS5 613-631] | 119 ± 21 | – | – |
| NWVPTGRTTWSIHAGGEW [NS5 791-808] | 78 ± 17 | – | – |
| PATAWSLYAVTTAVLTPL [NS4b 38-55] | – | 67 ± 13 | T cell activation of HLA transgenic mice (SFC/10^6) IFN-γ ELISpot, DR2 [4]: 57 ± 11 SFC/10^6 |
| PFVDVGVSALLLAAGCW [NS4b 87-103] | 59 ± 14 | – | – |
| PREHNGNEIVDVMCHATL [NS3 249-266] | 46 ± 16 | – | T cell activation of HLA transgenic mice (SFC/10^6) IFN-γ ELISpot, DR2 [4]: 139 ± 25 SFC/10^6; T cell activation of HLA transgenic mice (SFC/10^6) IFN-γ ELISpot, A2 [2]: 79 ± 27 SFC/10^6 |
| RGWGNGCGLFGKGSI [E 99-113] | – | 79 ± 7 | – |
| RLNDTWKLERAVLGEVK [NS1 205-221] | 61 ± 15 | – | – |
| RQELRCGSGVFIHNDVEA [NS1 10-27] | 63 ± 8 | – | – |
| RVVFVVLLLLVAPAYS [prM 152-167] | 117 ± 10 | 90 ± 47 | T cell activation of HLA transgenic mice (SFC/10^6) IFN-γ ELISpot, DR2 [4]: 269 ± 30 SFC/10^6; T cell activation of HLA transgenic mice (SFC/10^6) IFN-γ ELISpot, A2 [2]: 318 ± 179 SFC/10^6 |
| SGCWYGMEIRPQRHDEK [NS1 327-343] | 78 ± 4 | – | – |
| SQIGLIEVLGKMPEHFM [NS4a 1-17] | – | 132 ± 17 | – |
| VAAEMAEALRGLPIRY [NS3 228-243] | 46 ± 9 | – | – |
| VFHTLWHTTKGAALM [NS3 45-59] | – | 63 ± 10 | – |

| Substance | T cell activation of HLA transgenic mice (SFC/10^6) IFN-γ ELISpot, DR4 [1] [SFC/10^6] | T cell activation of HLA transgenic mice (SFC/10^6) IFN-γ ELISpot, DR3 [3] [SFC/10^6] | further results |
| --- | --- | --- | --- |
| VFTSVGKAVHQVFGGAFR [E 434-451] | – | 79 ± 19 | T cell activation of HLA transgenic mice (SFC/10^6) IFN-γ ELISpot, DR2 [4]: 116 ± 5 SFC/10^6 |
| VHQVFGGAFRSLFGGMSW [E 442-459] | – | 101 ± 15 | T cell activation of HLA transgenic mice (SFC/10^6) IFN-γ ELISpot, DR2 [4]: 117 ± 5 SFC/10^6; T cell activation of HLA transgenic mice (SFC/10^6) IFN-γ ELISpot, A2 [2]: 442 ± 313 SFC/10^6 |
| VTVNPFVSVATANAKVLI [E 356-373] | 217 ± 51 | – | – |
| VVNPSVKTVREAGILITA [NS4b 187-204] | 83 ± 13 | – | – |
| VWLAYKVAAAGVSYHDRR [NS3 545-562] | – | 110 ± 9 | – |
| WDFGSVGGVFTSVGKAVH [E 426-443] | – | 83 ± 13 | – |
| WHTTKGAALMSGEGRL [NS3 50-65] | – | 191 ± 37 | – |
| WNV E 54-71 peptide | – | – | IFN-γ ELISpot (SFC/10^6) [5]: 205 SFC/10^6 |
| WNV E 293-310 peptide | – | – | IFN-γ ELISpot (SFC/10^6) [5]: 47 SFC/10^6 |
| WNV NS1 10-27 peptide | – | – | IFN-γ ELISpot (SFC/10^6) [5]: 63 SFC/10^6 |
| WNV NS1 205-221 peptide | – | – | IFN-γ ELISpot (SFC/10^6) [5]: 61 SFC/10^6 |
| WNV NS1 270-287 peptide | – | – | IFN-γ ELISpot (SFC/10^6) [5]: 54 SFC/10^6 |
| WNV NS1 327-343 peptide | – | – | IFN-γ ELISpot (SFC/10^6) [5]: 78 SFC/10^6 |
| WNV NS2a 65-81 peptide | – | – | IFN-γ ELISpot (SFC/10^6) [5]: 60 SFC/10^6 |
| WNV NS2b 1-18 peptide | – | – | IFN-γ ELISpot (SFC/10^6) [5]: 104 SFC/10^6 |
| WNV NS3 6-23 peptide | – | – | IFN-γ ELISpot (SFC/10^6) [5]: 43 SFC/10^6 |
| WNV NS3 228-243 peptide | – | – | IFN-γ ELISpot (SFC/10^6) [5]: 46 SFC/10^6 |
| WNV NS3 581-597 peptide | – | – | IFN-γ ELISpot (SFC/10^6) [5]: 52 SFC/10^6 |
| WNV NS4b 101-118 peptide | – | – | IFN-γ ELISpot (SFC/10^6) [5]: 134 SFC/10^6 |
| WNV NS4b 187-204 peptide | – | – | IFN-γ ELISpot (SFC/10^6) [5]: 83 SFC/10^6 |
| WNV NS5 704-721 peptide | – | – | IFN-γ ELISpot (SFC/10^6) [5]: 65 SFC/10^6 |
| WNV NS5 771-788 peptide | – | – | IFN-γ ELISpot (SFC/10^6) [5]: 135 SFC/10^6 |
| WNV NS5 791-808 peptide | – | – | IFN-γ ELISpot (SFC/10^6) [5]: 78 SFC/10^6 |
| YFHRRDLRLMANAICSAV [NS5 771-788] | 135 ± 47 | – | – |
